Test results as given in patent publication US20190192699A1, “NUCLEAR IMAGING AND RADIOTHERAPEUTICS AGENTS TARGETING CARBONIC ANHYDRASE IX AND USES THEREOF” (THE JOHNS HOPKINS UNIVERSITY, priority 2016, published 2019).
“Also recorded” adds a separate entry of the source.

What was measured:
SK-RC-52 xenografts [1] = assay: Biodistribution of [111In]XYIMSR-01 and [177Lu]XYIMSR-01; format: in vivo, mice
Protocol: (§1) Cell Lines and Mouse Models. Animal experiments were performed in accordance with protocols approved by the Johns Hopkins Animal Care and Use Committee (ACUC). Six-week-old female NOD/SCID mice were purchased from the Animal Resource Core of the Sidney Kimmel Comprehensive Cancer Center of Johns Hopkins and were subcutaneously injected in the lower left flank or upper right flank with 1×10^6 SK-RC-52 cells in RPMI 1640 GlutaMAX™ media (Life Technologies, Frederick, Md.) supplemented with 1% fetal bovine serum (FBS). Mice were monitored for tumor size and used for SPECT/CT imaging when the size of the tumor reached 100 mm^3.
Biodistribution of [^111In]XYIMSR-01 and [^177Lu]XYIMSR-01. Mice bearing SK-RC-52 xenografts at lower left flank were injected intravenously with 740 kBq (20 μCi) of [^111In]XYIMSR-01, or [^177Lu]XYIMSR-01 in 200 μL of PBS. For competitive blocking, same tumor bearing mice were injected with 740 kBq (20 μCi) of [^111In]XYIMSR-01 and 200 nmole of 1 in 200 μL of PBS. At 1 h, 4 h, 8 h, 24 h and 48 h post-injection, mice were sacrificed by cervical dislocation and the blood was immediately collected by cardiac puncture. Heart, lungs, pancreas, spleen, fat, brain, muscle, small intestines, liver, stomach, kidney, urinary bladder, and tumor were collected. Each organ was weighed and the tissue radioactivity was measured with an automated gamma counter (1282 Compugamma CS, Pharmacia/LKBNuclear, Inc., Mt. Waverly, Vic. Australia). The percentage of injected dose per gram of tissue (% ID/g) was calculated by comparison with samples of a standard dilution of the initial dose. All measurements were corrected for radioactive decay.
Data were expressed as mean±standard deviation (SD). Prism software (GraphPAD, San Diego, Calif.) was used to determine statistical significance. Statistical significance was calculated using a paired t test. P-values […] were considered significant.

SK-RC-52 xenografts [2] = assay: Radio-therapy of [177Lu]XYIMSR-01, tumor growth; format: in vivo, mice; settings: 11.1 MBq (300 μCi) and 18.5 MBq (500 μCi) i.v., n=4
Protocol: as §1
Radio-therapy of [^177Lu]XYIMSR-01. Mice bearing SK-RC-52 xenografts at lower left flank were injected intravenously with PBS, 11.1 MBq (300 μCi) and 18.5 MBq (500 μCi) of [^177Lu]XYIMSR-01 in 200 μL of PBS (n=4). Size of the tumors was measured twice a week after the injection. […] The P-values were 0.042 and 0.031 for the 11.1 and […] doses, respectively.

[3] = tested on: CAIX-expressing SK-RC-52 tumors; assay: SPECT/CT imaging of [177Lu]XYIMSR-01; format: in vivo, mice; settings: intravenous
Protocol: as §1
SPECT/CT imaging of [^177Lu]XYIMSR-01. Mice were injected with 1.7 mCi of [^177Lu]XYIMSR-01 in 250 uL of PBS (pH7.0) intravenously, anesthetized under 3% isofluorane prior to being placed on the scanner bed and kept warm with an external light source while being scanned. Isofluorane levels were decreased to 1% throughout the scanning process in order to ensure mouse survival. Imaging of mice was then carried out using a CT-equipped Gamma Medica-Ideas SPECT scanner (Northridge, Calif.). A CT scan was performed at the end of each SPECT scan for anatomical co-registration. CT and SPECT scans were performed at 1, 4, 8, 24, and 48 hrs post injection of the [^177Lu]XYIMSR-01. Obtained data sets were subsequently reconstructed using the provided Gamma Medica-Ideas software. […]

CAIX = CAIX (Homo sapiens, UniProt Q16790); assay: In vitro uptake of [177Lu]XYIMSR-01; format: cell-based; set-up: host or cells: ccRCC tumours in patients
[4] = 24 hr + Block (200 nmole of 1 co-injected)
[5] = 48 hr + Block (200 nmole of 1 co-injected)

CC(CCC(=O)N[C@@H](CC(=O)N[C@@H](CC(=O)N[C@@H](CCCCn1cc(CCCC(=O)Nc2nnc(S(N)(=O)=O)s2)nn1)C(=O)NCCOCCOCCNC(=O)CN1CCN(CC(=O)[O-])CCN(CC(=O)[O-])CCN(CC(=O)[O-])CC1)C(=O)O)C(=O)O)(c1ccc(O)cc1)c1ccc(O)cc1.[177Lu+3] [[^177Lu]XYIMSR-01]
Biodistribution: Small intestine (SK-RC-52 xenografts [1]; [4]): 0.18 ± 0.07 % ID/g | Biodistribution: Spleen (SK-RC-52 xenografts [1]; [4]): 0.38 ± 0.32 % ID/g | Biodistribution: Stomach (SK-RC-52 xenografts [1]; [4]): 0.21 ± 0.07 % ID/g | Biodistribution: Tumor (SK-RC-52 xenografts [1]; [4]): 1.70 ± 0.79 % ID/g | Tumor/Blood ratio (SK-RC-52 xenografts [1]; [4]): 42.0 ± 20.9 | Tumor/Kidney ratio (SK-RC-52 xenografts [1]; [4]): 1.4 ± 0.6 | Tumor/Muscle ratio (SK-RC-52 xenografts [1]; [4]): 58.6 ± 25.3 | Biodistribution: Bladder (SK-RC-52 xenografts [1]; 24 hr post-injection): 1.29 ± 1.10 % ID/g | Biodistribution: Blood (SK-RC-52 xenografts [1]; 24 hr post-injection): 0.02 ± 0.01 % ID/g | Biodistribution: Brain (SK-RC-52 xenografts [1]; 24 hr post-injection): 0.28 ± 0.10 % ID/g | Biodistribution: Fat (SK-RC-52 xenografts [1]; 24 hr post-injection): 0.05 ± 0.04 % ID/g | Biodistribution: Heart (SK-RC-52 xenografts [1]; 24 hr post-injection): 0.28 ± 0.14 % ID/g | Biodistribution: Kidney (SK-RC-52 xenografts [1]; 24 hr post-injection): 3.11 ± 1.59 % ID/g | Biodistribution: Liver (SK-RC-52 xenografts [1]; 24 hr post-injection): 0.47 ± 0.21 % ID/g | Biodistribution: Lung (SK-RC-52 xenografts [1]; 24 hr post-injection): 1.48 ± 0.59 % ID/g | Biodistribution: Muscle (SK-RC-52 xenografts [1]; 24 hr post-injection): 0.10 ± 0.05 % ID/g | Biodistribution: Pancreas (SK-RC-52 xenografts [1]; 24 hr post-injection): 0.16 ± 0.07 % ID/g | Biodistribution: Small intestine (SK-RC-52 xenografts [1]; 24 hr post-injection): 0.96 ± 0.32 % ID/g | Biodistribution: Spleen (SK-RC-52 xenografts [1]; 24 hr post-injection): 0.20 ± 0.07 % ID/g | Biodistribution: Stomach (SK-RC-52 xenografts [1]; 24 hr post-injection): 1.02 ± 0.56 % ID/g | Biodistribution: Tumor (SK-RC-52 xenografts [1]; 24 hr post-injection): 12.51 ± 3.02 % ID/g | Tumor/Blood ratio (SK-RC-52 xenografts [1]; 24 hr post-injection): 607.4±200.7 | Tumor/Kidney ratio (SK-RC-52 xenografts [1]; 24 hr post-injection): 4.5±1.4 | Tumor/Muscle ratio (SK-RC-52 xenografts [1]; 24 hr post-injection): 128.4±25.4 | Biodistribution: Bladder (SK-RC-52 xenografts [1]; [5]): 0.28 ± 0.09 % ID/g | Biodistribution: Blood (SK-RC-52 xenografts [1]; [5]): 0.04 ± 0.07 % ID/g | Biodistribution: Brain (SK-RC-52 xenografts [1]; [5]): 0.02 ± 0.00 % ID/g | Biodistribution: Fat (SK-RC-52 xenografts [1]; [5]): 0.02 ± 0.01 % ID/g | Biodistribution: Heart (SK-RC-52 xenografts [1]; [5]): 0.04 ± 0.01 % ID/g | Biodistribution: Kidney (SK-RC-52 xenografts [1]; [5]): 0.39 ± 0.05 % ID/g | Biodistribution: Liver (SK-RC-52 xenografts [1]; [5]): 0.23 ± 0.04 % ID/g | Biodistribution: Lung (SK-RC-52 xenografts [1]; [5]): 0.18 ± 0.05 % ID/g | Biodistribution: Muscle (SK-RC-52 xenografts [1]; [5]): 0.01 ± 0.00 % ID/g | Biodistribution: Pancreas (SK-RC-52 xenografts [1]; [5]): 0.02 ± 0.00 % ID/g | Biodistribution: Small intestine (SK-RC-52 xenografts [1]; [5]): 0.05 ± 0.01 % ID/g | Biodistribution: Spleen (SK-RC-52 xenografts [1]; [5]): 0.15 ± 0.06 % ID/g | Biodistribution: Stomach (SK-RC-52 xenografts [1]; [5]): 0.09 ± 0.02 % ID/g | Biodistribution: Tumor (SK-RC-52 xenografts [1]; [5]): 0.65 ± 0.10 % ID/g | Tumor/Blood ratio (SK-RC-52 xenografts [1]; [5]): 42.7 ± 23.7 | Tumor/Kidney ratio (SK-RC-52 xenografts [1]; [5]): 1.7 ± 0.3 | Tumor/Muscle ratio (SK-RC-52 xenografts [1]; [5]): 62.5 ± 34.5 | Biodistribution: Bladder (SK-RC-52 xenografts [1]; 48 hr post-injection): 0.20 ± 0.01 % ID/g | Biodistribution: Blood (SK-RC-52 xenografts [1]; 48 hr post-injection): 0.04 ± 0.01 % ID/g | Biodistribution: Brain (SK-RC-52 xenografts [1]; 48 hr post-injection): 0.17 ± 0.03 % ID/g | Biodistribution: Fat (SK-RC-52 xenografts [1]; 48 hr post-injection): 0.03 ± 0.01 % ID/g | Biodistribution: Heart (SK-RC-52 xenografts [1]; 48 hr post-injection): 0.12 ± 0.17 % ID/g | Biodistribution: Kidney (SK-RC-52 xenografts [1]; 48 hr post-injection): 0.76 ± 0.11 % ID/g | Biodistribution: Liver (SK-RC-52 xenografts [1]; 48 hr post-injection): 0.19 ± 0.03 % ID/g | Biodistribution: Lung (SK-RC-52 xenografts [1]; 48 hr post-injection): 0.90 ± 0.05 % ID/g | Biodistribution: Muscle (SK-RC-52 xenografts [1]; 48 hr post-injection): 0.04 ± 0.01 % ID/g | Biodistribution: Pancreas (SK-RC-52 xenografts [1]; 48 hr post-injection): 0.06 ± 0.01 % ID/g | Biodistribution: Small intestine (SK-RC-52 xenografts [1]; 48 hr post-injection): 0.20 ± 0.05 % ID/g | Biodistribution: Spleen (SK-RC-52 xenografts [1]; 48 hr post-injection): 0.13 ± 0.04 % ID/g | Biodistribution: Stomach (SK-RC-52 xenografts [1]; 48 hr post-injection): 0.35 ± 0.04 % ID/g | Biodistribution: Tumor (SK-RC-52 xenografts [1]; 48 hr post-injection): 5.82 ± 2.14 % ID/g | Tumor/Blood ratio (SK-RC-52 xenografts [1]; 48 hr post-injection): 200.2 ± 101.7 | Tumor/Kidney ratio (SK-RC-52 xenografts [1]; 48 hr post-injection): 7.1 ± 1.8 | Tumor/Muscle ratio (SK-RC-52 xenografts [1]; 48 hr post-injection): 141.5 ± 71.7 | tumor growth compared with control non-treated mice (SK-RC-52 xenografts [2]): Delays in tumor growth; also recorded: significant therapeutic effect in controlling tumor growth | SPECT/CT tumor imaging finding [3]: radiotracer uptake in tumor as early as 1 h post-injection; also recorded: tumor visualization by 1 h post-injection | uptake in vitro (CAIX): CAIX specific uptake in vitro
